{"source": "patent US11478458B2", "about": "“Inhibitors of short-chain dehydrogenase activity for promoting neurogenesis and inhibiting nerve cell death” (CASE WESTERN RESERVE UNIVERSITY, priority 2016, dated 2022)", "key": {"EP2 receptors": {"target": "T1, EP2 receptors (Homo sapiens, UniProt P43116)", "T1 construct": "host or cells: neurons in vitro", "T1 sequence (P43116 whole entry)": "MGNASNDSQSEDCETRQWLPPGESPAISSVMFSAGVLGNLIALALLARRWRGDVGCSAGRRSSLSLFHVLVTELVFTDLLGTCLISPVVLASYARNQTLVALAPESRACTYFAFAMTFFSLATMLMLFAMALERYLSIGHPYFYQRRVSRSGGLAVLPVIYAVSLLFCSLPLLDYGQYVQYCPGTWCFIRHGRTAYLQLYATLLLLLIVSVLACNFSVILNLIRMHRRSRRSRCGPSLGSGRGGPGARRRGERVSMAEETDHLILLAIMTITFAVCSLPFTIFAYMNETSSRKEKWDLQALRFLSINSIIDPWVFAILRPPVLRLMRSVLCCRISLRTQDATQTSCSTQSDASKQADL", "details": "in vitro; cited from earlier work"}, "[1]": {"test": "pharmacokinetics in plasma and brain after intraperitoneal injection", "format": "in vivo", "details": "mouse, 25 mg/kg intraperitoneal, female C57BL/7 mice, read-out: total drug exposure (area under the curve) in brain relative to plasma"}, "[2]": {"tested_on": "PGE2 production by cell lines", "test": "PGE2 production by cell lines", "format": "cell-based"}, "[3]": {"test": "chemical stability in aqueous solutions", "format": "physicochemical", "details": "over broad pH range"}, "[4]": {"test": "stability on incubation with hepatocyte extracts", "format": "in vitro ADME"}, "[5]": {"test": "stability on incubation with hepatocyte cell lines", "format": "in vitro ADME"}, "[6]": {"test": "toxicity after IP injection into mice"}, "[7]": {"details": "cited from earlier work"}, "recombinant 15-PGDH": {"target": "T2, recombinant 15-PGDH (Homo sapiens, UniProt P15428)", "T2 sequence (P15428 1-266)": "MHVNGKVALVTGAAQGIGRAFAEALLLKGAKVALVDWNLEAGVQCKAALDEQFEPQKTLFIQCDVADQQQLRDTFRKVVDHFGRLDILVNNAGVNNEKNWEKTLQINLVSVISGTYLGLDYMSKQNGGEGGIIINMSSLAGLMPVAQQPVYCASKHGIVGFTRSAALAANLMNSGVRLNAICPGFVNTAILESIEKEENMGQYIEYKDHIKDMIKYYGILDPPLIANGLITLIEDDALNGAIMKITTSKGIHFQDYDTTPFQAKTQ", "test": "inhibition of recombinant 15-PGDH", "format": "biochemical"}, "[8]": {"test": "stability on incubation with mouse liver extracts", "format": "in vitro ADME"}, "[9]": {"test": "stability on incubation with rat liver extracts", "format": "in vitro ADME"}, "[10]": {"test": "stability on incubation with human liver extracts", "format": "in vitro ADME"}, "[11]": {"tested_on": "prostaglandin E2 (PGE2) in brain", "test": "PGE2 in 3 regions of the mouse brain after intraperitoneal injection", "format": "in vivo", "details": "2.5 mg/kg IP, 3 hours after injection; cerebrum, cerebellum, medulla/pons; 3 mice", "excerpt": "Brain regions sampled are #1, the cerebrum, #2, the cerebellum, and #3, medulla/pons. Basal PGE2 is highest in the cerebrum and medulla/pons, and lowest in the cerebellum."}, "[12]": {"tested_on": "mice subjected to blast injury (traumatic brain injury)", "test": "learning, memory and beam walking after traumatic brain injury (blast injury)", "format": "in vivo", "details": "blast-injured mice", "protocol": "In this study, mice were on day 0 subjected to traumatic brain injury from exposure to an adjacent blast injury in an overpressure chamber. 24 hours later, on study day 1, mice treatment with (+) SW033291 at 10 mg/kg was initiated by daily intraperitoneal injection. A parallel cohort of control mice were initiated on injection with vehicle only. On study day 7, mice commenced 4 days of daily training to learn the location of a cup on a table with 20 holes equally spaced around the perimeter, in the standard Barnes maze task. […] Cohorts that are compared are sham-injured mice, mice subjected to blast injury and treated with vehicle, mice subjected to blast injury and treated with the neuroprotective agent P7C3-A20, and mice subjected to blast injury and treated with (+) SW033291. Quicker time in finding the cup on day 4 is reflective of learning.\nOn study day 11, mice were returned to the Barnes maze with the escape cup removed, and memory was assessed by measuring the time mice spent within 5 cm of the cup's prior location.\nOn study day 12-14, mice were further trained to traverse a ½ inch cylindrical rod to reach and enter a black box. On day 14, the mice performance was videotaped and counts were made of the number of times a mouse foot slipped from the beam. […] In this assay, the worst performance is recorded for mice exposed to blast-injury receiving vehicle injections."}, "15-PGDH": {"target": "T3, 15-PGDH (Mus musculus, UniProt Q8VCC1)", "T3 construct": "from tissue; host or cells: mouse brain (cortex, cerebellum, pons and medulla)", "T3 sequence (Q8VCC1 1-269)": "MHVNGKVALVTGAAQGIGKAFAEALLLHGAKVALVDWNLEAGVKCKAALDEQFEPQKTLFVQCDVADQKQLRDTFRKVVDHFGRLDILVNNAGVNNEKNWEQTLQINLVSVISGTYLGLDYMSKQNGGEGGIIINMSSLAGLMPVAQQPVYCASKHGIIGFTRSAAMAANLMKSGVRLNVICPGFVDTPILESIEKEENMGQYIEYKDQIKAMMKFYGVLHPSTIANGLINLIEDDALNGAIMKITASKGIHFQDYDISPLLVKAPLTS", "test": "15-PGDH activity in mouse brain regions after IP injection", "format": "in vivo", "details": "2.5 mpk IP", "protocol": "FIGS. 6(A-C) illustrate graphs showing 15-PGDH activity in the cortex (A), cerebellum (B), and pons and medulla (C) of mouse brain following IP injection of 15-PGDH inhibitor (+) SW033291 at 2.5 mpk. 15-PGDH activity was measured from the 3 regions of mouse brain using a 15-tritiated PGE2 substrate. A coupled enzymatic assay uses 15-PGDH and glutamate dehydrogenase to transfer tritium from PGE2 onto glutamate. Brain tissues were harvested for assay at the times shown following IP injection of 15-PGDH inhibitor (+)-SW033291 at 2.5 mpk."}, "[13]": {"tested_on": "PGE2 levels in rat brain cortex", "test": "PGE2 levels in rat brain cortex after IP injection", "format": "in vivo", "protocol": "FIG. 7 illustrates a graph showing PGE2 levels in rat brain cortex following IP injection of (+) SW033291 at 2.5, 5.0, and 10.0 mg/kg. PGE2 levels are elevated in rat brain cortex 30, 120, and 180 minutes following a single IP injection of (+)-SW033291 at the noted doses."}}, "note": "Read-outs that look alike come from different tables or passages of the source.", "data": [{"smiles": "CCCC1([C@H](O)C/C=C/[C@H]2[C@H](O)CC(=O)[C@@H]2CCCCCCC(=O)OC)CCC1", "note": "[butaprost]", "values": [{"measurement": "protection of neurons from amyloid β-peptide neurotoxicity", "setting": "EP2 receptors", "value": "protected neurons"}]}, {"smiles": "CCCC[S+]([O-])c1sc2nc(-c3nccs3)cc(-c3cnc(C)n3C)c2c1N", "note": "(single isomer, unassigned; (+)) [(+) SW209415]", "values": [{"measurement": "Kp", "setting": "[1]", "value": 1.56}]}, {"smiles": "CCCC[S+]([O-])c1sc2nc(-c3cccs3)cc(-c3ccccc3)c2c1N", "note": "(centres unmarked) [formula (IX)]", "values": [{"measurement": "PGE2 production by cell lines", "setting": "[2]", "value": "increase PGE2 production"}, {"measurement": "chemical stability in aqueous solutions", "setting": "[3]", "value": "chemically stable"}, {"measurement": "chemical stability when incubated with hepatocyte extracts", "setting": "[4]", "value": "chemically stable"}, {"measurement": "chemical stability when incubated with hepatocyte cell lines", "setting": "[5]", "value": "chemically stable"}, {"measurement": "toxicity on repeated dosing", "setting": "[6]; IP into mice at 0.3 μmole/per mouse twice daily for 21 days", "value": "no toxicity"}, {"measurement": "immediate toxicity over 24 hours", "setting": "[6]; IP into mice at 0.6 μmole/per mouse", "value": "no immediate toxicity"}, {"measurement": "immediate toxicity over 24 hours", "setting": "[6]; IP into mice at 1.2 μmole/per mouse", "value": "no immediate toxicity"}]}, {"smiles": "CCCCC[C@H](O)/C=C/[C@H]1[C@H](O)CC(=O)[C@@H]1C/C=C\\CCCC(=O)O", "note": "[PGE2, prostaglandin E2]", "values": [{"measurement": "half-life", "setting": "[7]; following intravenous injection", "value": "less than 1 min"}, {"measurement": "half-life", "setting": "[7]; in the circulatory system", "value": "approximately 30 sec"}]}, {"smiles": "CCCC[S+]([O-])c1sc2nc(-c3nccs3)cc(-c3cnc(C)n3C)c2c1N", "note": "(centres unmarked) [formula (X)]", "values": [{"measurement": "concentration at which recombinant 15-PGDH is inhibited", "setting": "recombinant 15-PGDH", "value": 3, "unit": "nM"}, {"measurement": "concentration at which PGE2 production by cell lines is increased", "setting": "[2]", "value": 20, "unit": "nM"}, {"measurement": "chemical stability in aqueous solutions", "setting": "[3]", "value": "chemically stable"}, {"measurement": "chemical stability when incubated with mouse liver extracts", "setting": "[8]", "value": "chemically stable"}, {"measurement": "chemical stability when incubated with rat liver extracts", "setting": "[9]", "value": "chemically stable"}, {"measurement": "chemical stability when incubated with human liver extracts", "setting": "[10]", "value": "chemically stable"}, {"measurement": "immediate toxicity over 24 hours", "setting": "[6]; IP into mice at 50 mg/kg body weight", "value": "no immediate toxicity"}]}, {"smiles": "CCCC[S+]([O-])c1sc2nc(-c3cccs3)cc(-c3ccccc3)c2c1N", "note": "(single isomer, unassigned; (+)) [(+) SW033291]", "values": [{"measurement": "brain PGE2 levels versus vehicle", "setting": "[11]", "value": "roughly double"}, {"measurement": "Barnes maze learning (time to locate the cup, training days 1-4)", "setting": "[12]; daily IP treatment from 24 hours after injury, study days 7-10", "value": "appear similar to control mice that received only sham injury"}, {"measurement": "Barnes maze memory (time within 5 cm of the cup's prior location)", "setting": "[12]; study day 11", "value": "behaved similarly to control mice that received only sham injury"}, {"measurement": "foot slips from the beam", "setting": "[12]; study day 14", "value": "intermediate performance"}, {"measurement": "15-PGDH enzyme activity in brain (cortex, cerebellum, pons and medulla)", "setting": "15-PGDH", "value": "readily inhibited"}, {"measurement": "PGE2 levels in rat brain cortex", "setting": "[13]; 30, 120 and 180 minutes after single IP injection at 2.5, 5.0, 10.0 mg/kg", "value": "elevated"}, {"measurement": "PGE2 levels in rat brain cortex", "setting": "[13]; 120 minutes after dosing at 10 mpk IP", "value": "double"}, {"measurement": "PGE2 levels in rat brain cortex", "setting": "[13]; 180 minutes after dosing at 5 mpk IP", "value": "double"}]}]}
